Experimental findings from US6821980B1, “Substituted 5-benzyl-2,4-diaminopyrimidines” (Basilea Pharmaceutica AG, priority 1999, dated 2004) are described below.

The structures appear in SMILES notation. Values after ≈ are worked out from the molar mass of the structure shown. Like-named read-outs stand apart in the source and are kept apart here.

In assay [1] the test system is Streptococcus pneumoniae 1/1. In words: MIC against Streptococcus pneumoniae 1/1. In kind it is cell-based. The settings on record: Streptococcus pneumoniae 1/1, trimethoprim- and penicillin-resistant, serotype 6, clinical isolate, read-out: MIC Sp1/1.
The target in assay [2] is T1, purified DHFR of strain Sp1/1 of Streptococcus pneumoniae (Streptococcus pneumoniae serotype 4, UniProt Q54801).
T1 sequence (Q54801 1-168 I100L): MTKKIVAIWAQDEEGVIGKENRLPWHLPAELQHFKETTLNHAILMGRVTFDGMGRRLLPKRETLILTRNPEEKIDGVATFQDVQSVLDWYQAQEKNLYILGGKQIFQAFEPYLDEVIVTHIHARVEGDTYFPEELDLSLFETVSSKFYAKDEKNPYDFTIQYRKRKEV
It counts as biochemical. The settings on record: IC50 against purified DHFR of strain Sp1/1.

Assay [3] has as its system Staphylococcus aureus 101. The assay can be described thus: MIC against Staphylococcus aureus 101. The settings on record: Staphylococcus aureus 101, MRSA- and trimethoprim-resistant, clinical isolate, read-out: MIC Sa101. In kind it is cell-based.
Assay [4] deals with purified DHFR of strain 157/4696 of Staphylococcus aureus (Staphylococcus aureus, UniProt P13955). In words: biochemical.
purified DHFR of strain 157/4696 of Staphylococcus aureus, sequence (P13955 whole entry): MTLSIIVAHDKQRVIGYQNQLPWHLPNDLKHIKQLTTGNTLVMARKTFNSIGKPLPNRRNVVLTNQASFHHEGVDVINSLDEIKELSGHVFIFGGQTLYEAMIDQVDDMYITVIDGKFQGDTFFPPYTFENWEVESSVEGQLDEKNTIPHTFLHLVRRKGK

By IC50 is commonly meant the midpoint of a concentration-inhibition curve. As for `CCOc1cc(Cc2cnc(N)nc2N)cc(OS(=O)(=O)C(C)CC)c1-c1ccc(O)cc1` (stereo not shown) [Example 15-g, Butane-2-sulphonic acid 4-(2,4-diamino-Dyrimidin-5-ylmethyl)-6-ethoxy-4′-hydroxy-biphenyl-2-yl ester], the MIC in assay [1] (Table 2) amounted to 0.5 µg/mL (≈ 1.06 µM); in assay [3] (Table 2) it was 2 µg/mL (≈ 4.23 µM). The results for the IC50 in assay [2] (Table 2) and in assay [4] were 25 nM and 39 nM, respectively.
For `CCOc1cc(Cc2cnc(N)nc2N)cc(OS(=O)(=O)CC(C)(C)C)c1-c1ccc(O)cc1` [Example 15-h, 2,2-Dimethyl-propane-1-sulphonic acid 4-(2,4-diamino-pyrimidin-5-ylmethyl)-6-ethoxy-4′-hydroxa-biphenyl-2-yl ester] the same measures were 0.25 µg/mL (≈ 0.514 µM), 4 µg/mL (≈ 8.22 µM), 4.1 nM and 920 nM.
The like results for `CCOc1cc(Cc2cnc(N)nc2N)cc(OS(=O)C(C)(C)C)c1-c1ccc(O)cc1` (stereo not shown) [Example 15-i, 2-Methyl-propane-2-sulphinic acid 4-(2,4-diamino-pyrimidin-5-ylmethyl)-6-ethoxy-4′-hydroxy-biphenyl-2-yl ester] were, in that order, 4 µg/mL (≈ 8.76 µM), 2 µg/mL (≈ 4.38 µM), 22 nM and 81 nM.
Turning to `CCOc1cc(Cc2cnc(N)nc2N)cc(OS(=O)(=O)c2ccc(OC)c(F)c2)c1-c1ccc(O)cc1` [Example 15-j, 3-Fluoro-4-methoxy-benzenesulphonic acid 4-(2,4-diamino-pyrimidin-5-ylmethyl)-6-ethoxy-4′-hydroxy-biphenyl-2-yl ester], the figures for the MIC in assay [1] (Table 2) and in assay [3] (Table 2) were 1 µg/mL (≈ 1.85 µM) and 8 µg/mL (≈ 14.8 µM), respectively. The concentration for half-maximal inhibition (IC50) in assay [2] (Table 2) was determined as 1.7 nM; in assay [4], 550 nM.
In the case of `CCOc1cc(Cc2cnc(N)nc2N)cc(OS(C)(=O)=O)c1-c1ccc(OC)cc1` [Example 16-a, Methanesulphonic acid 4-(2,4-diamino-pyrimidin-5-ylmethyl)-6-ethoxy-4′-methoxy-biphenyl-2-yl ester], the MIC in assay [1] (Table 2) turned out to be 2 µg/mL (≈ 4.5 µM); in assay [3] (Table 2), 4 µg/mL (≈ 9 µM). Further, the values for the half-inhibitory concentration (IC50) in assay [2] (Table 2) and in assay [4] were 21 nM and 310 nM, respectively.
With `CCOc1cc(Cc2cnc(N)nc2N)cc(OS(=O)(=O)CC)c1-c1ccc(OC)cc1` [Example 16-b, Ethanesulphonic acid 4-(2,4-diamino-pyrimidin-5-ylmethyl)-6-ethoxy-4′-methoxy-biphenyl-2-yl ester], the MIC in assay [1] (Table 2) and in assay [3] (Table 2) was 2 µg/mL (≈ 4.36 µM) each time. Moreover, the figures for the half-maximal inhibitory concentration (IC50) in assay [2] (Table 2) and in assay [4] were 39 nM and 100 nM, respectively.
`CCOc1cc(Cc2cnc(N)nc2N)cc(OS(=O)(=O)C(C)C)c1-c1ccc(OC)cc1` [Example 16-c, Propane-2-sulphonic acid 4-(2,4-diamino-Ryimidin-5-ylmethyl)-6-ethoxy-4′-methoxy-biphenyl-2-yl ester]: the MIC in assay [1] (Table 2) and in assay [3] (Table 2) was 2 µg/mL (≈ 4.23 µM) throughout. For the same compound, the half-inhibitory concentration (IC50) in assay [2] (Table 2) was 18 nM; in assay [4], 260 nM.
Consider `CCOc1cc(Cc2cnc(N)nc2N)cc(OS(C)(=O)=O)c1-c1ccc2c(c1)OCO2` [Example 17-a, Methanesulphonic acid 2-benzof[1,3]dioxol-5-yl-5-(2,4-diamino-Ryrimidin-5-ylmethyl)-3-ethoxy-phenyl ester], for which the values for the MIC in assay [1] (Table 2) and in assay [3] (Table 2) were 2 µg/mL (≈ 4.36 µM) and 4 µg/mL (≈ 8.72 µM), respectively. In addition, the IC50 in assay [2] (Table 2) turned out to be 38 nM; in assay [4], 600 nM.
Take `CCOc1cc(Cc2cnc(N)nc2N)cc(OS(=O)(=O)CC)c1-c1ccc2c(c1)OCO2` [Example 17-b, Ethanesulphonic acid 2-benzo[1.3]dioxol-5-yl-5-(2,4-diamino-Iyrimidin-5-ylmethyl)-3-ethoxy-phenyl ester]: the MIC came to 2 µg/mL (≈ 4.23 µM) in assay [1] (Table 2) and 4 µg/mL (≈ 8.47 µM) in assay [3] (Table 2). Besides, the IC50 in assay [2] (Table 2) came to 38 nM; in assay [4] it was 370 nM.
For `CCOc1cc(Cc2cnc(N)nc2N)cc(OS(=O)(=O)C(C)C)c1-c1ccc2c(c1)OCO2` [Example 17-c, Propane-2-sulphonic acid 2-benzo[1.3]dioxol-5-yl-5-(2,4-diamino-pyrimidin-5-ylmethyl)-3-ethoxy-phenyl ester] the same measures were 2 µg/mL (≈ 4.11 µM), 2 µg/mL (≈ 4.11 µM), 33 nM and 180 nM.
Regarding `CCCS(=O)(=O)Oc1cc(Cc2cnc(N)nc2N)cc(OCC)c1-c1ccc2c(c1)OCO2` [Example 17-d, Propane-1-sulphonic acid 2-benzo[1.3]dioxol-5-yl-5-(2,4-diamino-pyrimidin-5-ylmethyl)-3-ethoxy-phenyl ester], the MIC was found to be 1 µg/mL (≈ 2.06 µM) in assay [1] (Table 2) and 4 µg/mL (≈ 8.22 µM) in assay [3] (Table 2). The values for the IC50 in assay [2] (Table 2) and in assay [4] were 14 nM and 150 nM, respectively.
Consider `CCOc1cc(Cc2cnc(N)nc2N)cc(OS(=O)(=O)C(C)C)c1-c1ccc(N)cc1` [Example 18, Propane-2-sulphonic acid 4′-amino-4-(2,4-diamino-pyrimidin-5-ylmethyl)-6-ethoxy-biphenyl-2-yl ester], for which the MIC amounted to 1 µg/mL (≈ 2.19 µM) in assay [1] (Table 1) and 2 µg/mL (≈ 4.37 µM) in assay [3] (Table 1). For the same compound, the half-inhibitory concentration (IC50) stood at 5.6 nM in assay [2] (Table 1) and 39 nM in assay [4].
As to `CCOc1cc(Cc2cnc(N)nc2N)cc(OS(=O)(=O)N(C)C)c1-c1cccc(N)c1` [Example 19-a, Dimethyl-sulphamic acid 3′-amino-4-(2,4-diamino-pyrimidin-5-ylmethyl)-6-ethoxy-biphenyl-2-yl ester], the MIC in assay [1] (Table 2) and in assay [3] (Table 2) was 1 µg/mL (≈ 2.18 µM) each time. For the same compound, the figures for the half-inhibitory concentration (IC50) in assay [2] (Table 2) and in assay [4] were 6.2 nM and 85 nM, respectively.
For the compound `CCOc1cc(Cc2cnc(N)nc2N)cc(OS(=O)(=O)N2CCCCC2)c1-c1cccc(N)c1` [Example 19-b, Piperidine-1-sulphonic acid 3′-amino-4-(2,4-diamino-pyrimidin-5-ylmethyl)-6-ethoxy-biphenyl-2-yl ester], the results for the MIC in assay [1] (Table 2) and in assay [3] (Table 2) were 0.5 µg/mL (≈ 1 µM) and 1 µg/mL (≈ 2.01 µM), respectively. For the same compound, the figures for the IC50 in assay [2] (Table 2) and in assay [4] were 2.4 nM and 130 nM, respectively.
The like results for `CCOc1cc(Cc2cnc(N)nc2N)cc(OS(=O)(=O)N2CCCC2)c1-c1cccc(N)c1` [Example 19-c, Pyrrolidine-1-sulphonic acid 3′-amino-4-(2,4-diamino-pyrimidin-5-vlmethyl)-6-ethoxy-biphenyl-2-yl ester] were, in that order, 1 µg/mL (≈ 2.06 µM), 2 µg/mL (≈ 4.13 µM), 19 nM and 66 nM.
The like results for `CCOc1cc(Cc2cnc(N)nc2N)cc(OS(=O)(=O)N(C)C(C)C)c1-c1cccc(N)c1` [Example 19-d, N-Isopropyl-N-methyl-sulphamic acid 3′-amino-4-(2,4-diamino-pyrimidin-5-ylmethyl)-6-ethoxy-biphenyl-2-yl ester] were, in that order, 2 µg/mL (≈ 4.11 µM), 2 µg/mL (≈ 4.11 µM), 8.3 nM and 55 nM.
For the compound `CCOc1cc(Cc2cnc(N)nc2N)cc(OS(=O)(=O)N2CCOCC2)c1-c1cccc(N)c1` [Example 19-e, Morpholine-4-sulphonic acid 3′-amino-4-(2,4-diamino-pyrimidin-5-ylmethyl)-6-ethoxy-biphenyl-2-yl ester], the figures for the MIC in assay [1] (Table 2) and in assay [3] (Table 2) were 1 µg/mL (≈ 2 µM) and 2 µg/mL (≈ 4 µM), respectively. Also, the IC50 in assay [2] (Table 2) is 3.9 nM; in assay [4] it was 38 nM.
For `CCOc1cc(Cc2cnc(N)nc2N)cc(OS(=O)(=O)N(C)CC)c1-c1cccc(N)c1` [Example 19-f, N-Ethyl-N-methyl-sulphamic acid 3′-amino-4-(2,4-diamino-vyrimidin-5-ylmethyl)-6-ethoxy-biphenyl-2-yl ester] the same measures were 1 µg/mL (≈ 2.12 µM), 1 µg/mL (≈ 2.12 µM), 6.2 nM and 82 nM.
The like results for `CCOc1cc(Cc2cnc(N)nc2N)cc(OS(=O)(=O)N(C)C2CC2)c1-c1cccc(N)c1` [Example 19-g, N-Cclopropyl-N-methyl-sulphamic acid 3′-amino-4-(2,4-diamino-Ryrimidin-5-ylmethyl)-6-ethoxy-biphenyl-2-yl ester] were, in that order, 1 µg/mL (≈ 2.06 µM), 1 µg/mL (≈ 2.06 µM), 6.8 nM and 56 nM.
For the compound `CCOc1cc(Cc2cnc(N)nc2N)cc(OS(=O)(=O)N(CC)CC)c1-c1cccc(N)c1` [Example 19-h, Diethyl-sulphamic acid 3′-amino-4-(2,4-diamino-pyrimidin-5-ylmethyl)-6-ethoxy-biphenyl-2-yl ester], the MIC in assay [1] (Table 2) stood at 1 µg/mL (≈ 2.06 µM); in assay [3] (Table 2), 2 µg/mL (≈ 4.11 µM). Also, the IC50 in assay [2] (Table 2) came out at 0.55 nM; in assay [4], 160 nM.
For `CCOc1cc(Cc2cnc(N)nc2N)cc(OS(=O)(=O)N(C)C)c1-c1ccc(O)cc1` [Example 20-a, Dimethyl-sulphamic acid 4-(2,4-diamino-pyrimidin-5-ylmethyl)-6-ethoxy-4′-hydroxy-biphenyl-2-yl ester] the same measures were 1 µg/mL (≈ 2.18 µM), 2 µg/mL (≈ 4.35 µM), 7.5 nM and 150 nM.
For `CCOc1cc(Cc2cnc(N)nc2N)cc(OS(=O)(=O)N2CCCCC2)c1-c1ccc(O)cc1` [Example 20-b, Piperidine-1-sulphonic acid 4-(2,4-diamino-pyrimidin-5-ylmethyl)-6-ethoxy-4′-hydroxy-biphenyl-2-yl ester] the same measures were 0.5 µg/mL (≈ 1 µM), 1 µg/mL (≈ 2 µM), 1.8 nM and 140 nM.
